This note sets out measurements from US9878978B2, “Processes for the diazotization of 2,5-dichloroanilines” (priority 2013, dated 2018).

For series [1] the following is noted: acetic acid/sulfuric acid reaction mixture stored at room temperature for two weeks.
A short description of series [2]: Solubility study of 2,5-dichloroaniline in different solvents. It counts as physicochemical. The procedure:
Three different commercially available sources of 2,5-dichloroaniline (Sigma, Acros, and AlfaAesar) were evaluated for solubility in several different solvents under the specific conditions reported in Table 5-A. The 2,5-dichloroaniline obtained from Sigma was evaluated with and without milling.
In contrast, it was insoluble in concentrated hydrochloric acid, 75% sulfuric acid (weight/weight sulfuric acid/water), and formic acid at all temperatures tested. Although 2,5-dichloroaniline was soluble in concentrated sulfuric acid at 80° C., solubility at the lower temperatures tested still was limited. Milling the 2,5-dichloroaniline did appear to improve solubility in concentrated sulfuric acid.
When sulfuric acid was added to the milled or unmilled 2,5-dichloroaniline, the 2,5-dichloroaniline clumped up and formed a “crust” on itself. It is hypothesized that this crust is a 2,5-dichloroaniline sulfate salt that forms and creates a salt capsule enclosing the 2,5-dichloroaniline thereby further reducing 2,5-dichloroaniline solubility. With vigorous stirring by stir bar or paddle-equipped stir rod, the mixture containing the “crusted” 2,5-dichloroaniline typically can be converted to a slurry of the 2,5-dichloroaniline sulfate salt.

Series [3] can be described thus: 2,5-Dichlorophenol stability at 120° C. with or without sodium nitrite and sulfamic acid. It counts as physicochemical. The settings on record: 120° C. in the various solvents, without sodium nitrite. As for the experimental part: In this study, 2,5-dichlorophenol was stirred at 120° C. in the presence or absence of sodium nitrite and/or sulfamic acid. The 2,5-dichlorophenol itself was stable and either dissolved or melted in the various solvents at 120° C. Upon addition of sodium nitrite to the solution and heating at 120° C. for 30 minutes, all of the solutions had some byproduct formation. The experiments were repeated with sulfamic acid added at 1.1 times the sodium nitrite equivalents with heating to 120° C. for 30 minutes as before. Byproduct formation was reduced, and only the solutions containing sulfuric acid had byproducts.

Take `N#[N+]c1cc(Cl)ccc1Cl` [2,5-Dichlorobenzene diazonium, 2,5-dichlorobenzenediazonium]: in series [1], the Degradation on storage entry is reported as “no degradation”.

In the case of `Nc1cc(Cl)ccc1Cl` [2,5-dichloroaniline], the Solubility entry in series [2] (75% sulfuric acid (weight/weight sulfuric acid/water), all temperatures tested) is given as “insoluble”; in series [2] (Acros, not milled, Conc. H2SO4, molarity 1.12, 10° C.) it was “Partial”; in series [2] (Acros, not milled, Conc. H2SO4, molarity 1.12, 25° C.), “Soluble”; in series [2] (Acros, not milled, Conc. H2SO4, molarity 1.12, 80° C.) it was “Soluble”; in series [2] (Acros, not milled, Conc. H2SO4, molarity 2.24, 10° C.), “Partial”; in series [2] (Acros, not milled, Conc. H2SO4, molarity 2.24, 25° C.) it was “Partial”. Also, the Solubility result in series [2] (Acros, not milled, Conc. H2SO4, molarity 2.24, 80° C.) was “Soluble”; in series [2] (Acros, not milled, Glacial Acetic Acid, molarity 1.12, 10° C.) it was “Soluble”; in series [2] (Acros, not milled, Glacial Acetic Acid, molarity 1.12, 25° C.), “Soluble”; in series [2] (Acros, not milled, Glacial Acetic Acid, molarity 1.12, 80° C.) it was “Soluble”; in series [2] (Acros, not milled, Glacial Acetic Acid, molarity 2.24, 10° C.), “Soluble”; in series [2] (Acros, not milled, Glacial Acetic Acid, molarity 2.24, 25° C.), “Soluble”. Also, the Solubility result in series [2] (Acros, not milled, Glacial Acetic Acid, molarity 2.24, 80° C.) is “Soluble”; in series [2] (AlfaAesar, not milled, Conc. H2SO4, molarity 1.12, 10° C.) it was “Partial”; in series [2] (AlfaAesar, not milled, Conc. H2SO4, molarity 1.12, 25° C.) it was “Partial”; in series [2] (AlfaAesar, not milled, Conc. H2SO4, molarity 1.12, 80° C.), “Soluble”; in series [2] (AlfaAesar, not milled, Glacial Acetic Acid, molarity 2.24, 10° C.), “Soluble”; in series [2] (AlfaAesar, not milled, Glacial Acetic Acid, molarity 2.24, 25° C.) it was “Soluble”. For the same molecule, the Solubility result in series [2] (AlfaAesar, not milled, Glacial Acetic Acid, molarity 2.24, 80° C.) is “Soluble”; in series [2] (Sigma, milled, Conc. H2SO4, molarity 0.58, 10° C.), “Soluble”; in series [2] (Sigma, milled, Conc. H2SO4, molarity 0.58, 25° C.) it was “Soluble”; in series [2] (Sigma, milled, Conc. H2SO4, molarity 1.16, 10° C.), “Soluble”; in series [2] (Sigma, milled, Conc. H2SO4, molarity 1.16, 25° C.), “Soluble”; in series [2] (Sigma, milled, Conc. H2SO4, molarity 2.13, 10° C.), “Soluble”. Also, the Solubility result in series [2] (Sigma, milled, Conc. H2SO4, molarity 2.13, 25° C.) is “Soluble”; in series [2] (Sigma, milled, Glacial Acetic Acid, molarity 1.16, 10° C.), “Soluble”; in series [2] (Sigma, milled, Glacial Acetic Acid, molarity 1.16, 25° C.) it was “Soluble”; in series [2] (Sigma, milled, Glacial Acetic Acid, molarity 2.24, 10° C.), “Soluble”; in series [2] (Sigma, milled, Glacial Acetic Acid, molarity 2.24, 25° C.), “Soluble”; in series [2] (Sigma, not milled, 75% H2SO4, molarity 2.24, 10° C.) it was “Insoluble”. For the same molecule, the Solubility result was “Insoluble” in series [2] (Sigma, not milled, 75% H2SO4, molarity 2.24, 25° C.); “Insoluble” in series [2] (Sigma, not milled, 75% H2SO4, molarity 2.24, 80° C.); “Insoluble” in series [2] (Sigma, not milled, Conc. H2SO4, molarity 2.24, 10° C.); “Insoluble” in series [2] (Sigma, not milled, Conc. H2SO4, molarity 2.24, 25° C.); “Soluble” in series [2] (Sigma, not milled, Conc. H2SO4, molarity 2.24, 80° C.); “Insoluble” in series [2] (Sigma, not milled, Conc. HCl, molarity 2.24, 10° C.). The Solubility entry is “Insoluble” in series [2] (Sigma, not milled, Conc. HCl, molarity 2.24, 25° C.); “Insoluble” in series [2] (Sigma, not milled, Conc. HCl, molarity 2.24, 80° C.); “Insoluble” in series [2] (Sigma, not milled, Formic Acid (88%), molarity 2.24, 10° C.); “Insoluble” in series [2] (Sigma, not milled, Formic Acid (88%), molarity 2.24, 25° C.); “Insoluble” in series [2] (Sigma, not milled, Formic Acid (88%), molarity 2.24, 80° C.); “Soluble” in series [2] (Sigma, not milled, Glacial Acetic Acid, molarity 2.24, 25° C.). The Solubility result in series [2] (Sigma, not milled, Glacial Acetic Acid, molarity 2.24, 80° C.) is “Soluble”; in series [2] (Sigma, not milled, Trifluoracetic Acid, molarity 2.24, 10° C.) it was “Soluble”; in series [2] (Sigma, not milled, Trifluoracetic Acid, molarity 2.24, 25° C.) it was “Soluble”; in series [2] (Sigma, not milled, Trifluoracetic Acid, molarity 2.24, 80° C.), “Soluble”; in series [2] (acetic acid, all temperatures) it was “readily soluble”; in series [2] (concentrated hydrochloric acid, all temperatures tested), “insoluble”. In addition, the Solubility entry in series [2] (concentrated sulfuric acid, 80° C.) was “soluble”; in series [2] (concentrated sulfuric acid, lower temperatures tested), “limited”; in series [2] (formic acid, all temperatures tested) it was “insoluble”; in series [2] (trifluoroacetic acid, all temperatures), “readily soluble”.

Regarding `Oc1cc(Cl)ccc1Cl` [2,5-dichlorophenol], the Stability result in series [3] is given as “stable”.
